How the values were obtained:
human washed platelets [1] = test: Platelet-collagen static adhesion assay; assay type: cell-based
Description: (§1) As previously reported ([Banfi et al., 2022]), 50 μg/mL collagen and 25 μg/mL fibrinogen (Cat No. F3879-100 MG; Sigma-Aldrich, St. Louis, MO, United States) were used to coat coverslips overnight at 4°C. […] The coated slides were washed three times with PBS and blocked with 1% BSA (prepared in PBS) for 1 h at room temperature. The blocking solution was removed, and WPs were added for adhesion experiments. The WPs were allowed to adhere to the slides for 15–60 min at 37°C. The unadhered platelets were removed by PBS. The platelets were fixed with 2% paraformaldehyde solution for 15 min, broken using 1% Triton-100 for 5 min, and stained with phalloidin (1:1,000, Cat No.17466-45-4, Sigma-Aldrich) for 30 min away from light at room temperature. The platelet morphology was observed using an Olympus ix73 microscope (Olympus Corp., Shinjuku, Japan) and photographed. The number of platelet adhesions and spreading area were analyzed and calculated using ImageJ software.

human platelets = details: cited from earlier work
carotid thrombosis = tested on: carotid thrombosis; parameters: method as in Choi et al. (2015); details: mice; ref Choi et al. (2015); cited from earlier work
[2] = Luteolin in vivo toxicity experiments (15 days i.p.); parameters: species or system C57BL/6 mice
Description: Blood was collected from the orbits every 3 days for blood tests. On the second day, after 15 days of intraperitoneal administration, pentobarbital (45 mg/kg) was injected intraperitoneally for anesthesia, and blood was sampled from the eyes. Whole blood was left for 30–60 min, and the supernatant was centrifuged at 3,000 rpm for serum liver and kidney function testing using Unicel DxC600 (Beckman Coulter, Inc. Brea, California, US). Finally, the mice were sacrificed by cervical dislocation, and the sternum was fixed in 4% paraformaldehyde. […]

coagulation factor X = tested on: coagulation factor X; parameters: method as in Choi et al. (2015); details: ref Choi et al. (2015); cited from earlier work
human washed platelets [3] = test: Platelet-fibrinogen spreading assay; assay type: cell-based; details: 25 μg/mL fibrinogen-coated slides
Description: as §1

[4] = tested on: mesenteric artery thrombosis; test: Ferric chloride-induced mesenteric thrombosis in mice; assay type: in vivo, C57BL/6 mice; details: luteolin 35 μM/kg or aspirin 0.5 mM/kg i.p., 30 min before FeCl3
Description: A method reported in the literature was used to observe mesenteric artery thrombosis in mice ([Bonnard and […], 2015]). […] The mice were anesthetized by an intraperitoneal injection of pentobarbital (45 mg/kg). They were given an intraperitoneal injection of DMSO, luteolin, or aspirin. They were also given an orbital vein injection of 5 μg/kg rhodamine (Cat No. 83697-250 MG; Sigma-Aldrich, St. Louis, MO, United States) ([Bonnard and […], 2015]), respectively. The mesenteric vessels were exposed by opening the abdominal cavity, and small mesenteric arteries with a diameter of approximately 150-250 μm were selected under the microscope. […] During thrombosis, images were taken every 1 min for the first 10 min and every 5 min after 10 min using an MSHOT MD50 camera (Micro Shot Technology Ltd., Guangzhou, China) and an Olympus ix73 microscope (Olympus Corp., Shinjuku, Japan). […] The size of the thrombus formation was calculated using ImageJ software.

human washed platelets [5] = test: Clot retraction experiment; assay type: cell-based; details: luteolin 100 μM; 0.1 U/mL thrombin
Description: Clot retraction experiments were completed using the previously reported method ([Zhang et al., 2015]). […] Then, 200 μL of WPs were placed in a siliconized glass tube with 1 mM CaCl2, 0.1 U/mL thrombin, and 10 µL PPP, mixed well, and left at 37°C. Pictures were taken every 5 min. The clot size was calculated using ImageJ software.

[6] = luteolin 35 μM/kg i.p. daily for 15 days
[7] = luteolin 35 μM/kg i.p. daily, 15 days, mean ± SEM

## O=c1cc(-c2ccc(O)c(O)c2)oc2cc(O)cc(O)c12 [Luteolin]
Human washed platelets [1]; luteolin 25 µM, at 15, 30, 45, and 60 min
  adherent area vs vehicle: decreased
Human washed platelets [1]; luteolin 25 µM, at 15, 45, and 60 min
  surface per platelet vs vehicle: decreased
Human washed platelets [1]; luteolin 2.5 and 10 µM, at 15 and 45 min
  surface per platelet vs vehicle: decreased
Human washed platelets [1]; luteolin 2.5 and 10 µM, at 60 min
  adherent area vs vehicle: slightly decreased
Human washed platelets [1]; luteolin 10 and 25 µM, at 45 and 60 min
  platelet adherence (number of adherent platelets) on collagen vs vehicle: significantly decreased
Human platelets; 2 μM U46619, ref Guerrero et al., 2005, read-out: IC50, inhibition of U46619-induced platelet aggregation
  IC50: 47 ± 13.3 µM
Human platelets; 25–100 μM luteolin, 1 h incubation, ref Lu et al., 2021
  ADP induced platelet aggregation: inhibited
Human platelets; ref Guerrero et al., 2005, Guerrero et al., 2007, Lu et al., 2021
  collagen, U46619, and ADP-induced activation in human platelets: significantly inhibits
Carotid thrombosis
  FeCl3-induced carotid thrombosis: significantly inhibits
[2]; luteolin 35 μM/kg for 15 days
  liver and kidney functions: normal
[2]; [6]
  mean platelet volume vs DMSO: no significant differences
  megakaryocyte counts in bone marrow vs DMSO: no significant differences
  peripheral platelet count vs DMSO: no significant differences
[2]; [7]
  Alanine aminotransferase: 66.21 ± 5.35 U/L
  Alkaline phosphatase: 75.00 ± 7.34 U/L
  Aspartate aminotransferase: 147.20 ± 7.03 U/L
  Blood urea nitrogen: 10.14 ± 0.40 mmol/L
  Creatinine: 17.22 ± 2.61 µmol/L
  Granulocyte %: 25.22 ± 0.74%
  Granulocytes: 0.36 ± 0.03 ×10^9/L
  Lymphocyte %: 57.39 ± 1.59%
  Lymphocytes: 0.80 ± 0.04 ×10^9/L
  Monocyte %: 17.39 ± 1.56%
  Monocytes: 0.25 ± 0.04 ×10^9/L
  Red blood cells: 0.65 ± 0.03 ×10^12/L
  Total bilirubin: 5.24 ± 0.49 µmol/L
  White blood cells: 1.35 ± 0.10 ×10^9/L
  γ-glutamyl transferase: 6.20 ± 1.24 U/L
[2]; mouse, in vivo
  toxic effects in C57BL/6 mice: no significant toxic effects
Coagulation factor X
  coagulation factor X activity: effectively inhibits
Human washed platelets [3]
  platelet spreading on fibrinogen: inhibited
[4]
  time of clot obstruction of blood vessels: significantly prolong
  time of initial thrombus formation: Neither the 0.5 mM/kg aspirin group or 35 μM/kg luteolin group prolonged
Human washed platelets [5]
  thrombin-induced clot retraction: inhibited

From article PMC10644720 (Frontiers in Pharmacology, 2023)
